Here are results for 95 compounds from the CATMoS acute toxicity set (Mansouri et al. 2021).

The data set in a line: GHS categories as the set defines them, by LD50: 1 up to 5, 2 up to 50, 3 up to 300, 4 up to 2000, 5 above 2000 mg/kg. The conditions noted are these: rat; in vivo; po.

With `O=C1NC(=O)c2cccc3cccc1c23`, the GHS category amounted to 5. The figure for `CCOC(=O)CNc1nc(Cl)nc(NC(C)C)n1` is 5. The compound `COCCCNc1nc(NC(C)C)nc(SC)n1` showed a GHS category of 5. The figure for `CCOC(=O)C(=O)Nc1cc(OC)ncn1` is 4; for `Nc1ccc(-c2ccc(N)c3c2C(=O)c2ccccc2C3=O)c2c1C(=O)c1ccccc1C2=O` it is 5. With `CCCCCCCCCCCCCCCOS(=O)(=O)O` the figure was 5; with `Cc1cc(C(=O)Nc2cccc(C(F)(F)F)c2)n[nH]1`, 5. The compound `O=C(c1ccccc1)C1(O)CCCCC1` displayed a GHS category of 5. The figure for `COc1ccc2c(c1)CCN(c1ccccc1)C2c1ccc(F)cc1` (stereo not given) is 4; for `OC[C@H]1O[C@@H](OC[C@H]2O[C@@H](O[C@@H]3[C@@H](O)[C@H](O)O[C@H](CO)[C@H]3O)[C@H](O)[C@@H](O[C@@H]3O[C@H](CO)[C@@H](O)[C@H](O)[C@H]3O)[C@@H]2O)[C@H](O)[C@@H](O)[C@@H]1O` it is 4; for `C=COCC1CCC(COC=C)CC1` (stereo not given) it is 5.

`Cc1ccc(OC(=O)Cc2ccccc2)cc1` showed a GHS category of 5. `CCCCCCCC1CCCC1=O` (stereo not given) yielded a GHS category of 5. With `CCC(C)(Oc1ccc(C2(c3ccc(OC(C)(CC)C(=O)O)cc3)CCCCC2)cc1)C(=O)O` (stereo not given) the figure was 5; with `COc1ccc(C(=O)c2cccc(C)c2)cc1C`, 5; with `ClCC(Cl)C(Cl)(Cl)Cl` (stereo not given), 4. Consider `CCOc1ccc(C(C)(C)COCc2cccc(Oc3ccccc3)c2)cc1`, for which the GHS category was 5. The figure for `CCC1COC(Cn2cncn2)(c2cc3ccccc3o2)O1` (stereo not given) is 4; for `N#Cc1ccc(C#N)cc1` it is 5. Take `Cc1cc(C)nc(NC(=O)NS(=O)(=O)c2ccccc2C(=O)OC2COC2)n1`: the GHS category came to 5. The figure for `CC(CO)(CO)C(=O)O` is 5. With `Cc1cccn2c(=O)c(C(=O)NC3CCCC3)cnc12` the figure was 3; with `COC(=O)[C@]1(C)CCC[C@@]2(C)[C@H]1CC=C1C=C(C(C)C)CC[C@@H]12`, 5. The figure for `COc1ccc2c(c1)CCN(c1ccccc1)C2c1ccccc1N` (stereo not given) is 4; for `CC(O)CSCCCCCCCCC(C)(C)C` (stereo not given) it is 5; for `O=C(O)c1ccccc1N1C(=O)C(Cl)C1c1ccccc1` (stereo not given) it is 4. `CC(C)OC[C@H]1CO[C@@](Cn2cncn2)(c2cc3cc(Cl)cc(Cl)c3o2)O1` registered a GHS category of 4. The figure for `CC(=C(CCS(C)=O)SSC(CCS(C)=O)=C(C)N(C=O)Cc1cnc(C)nc1N)N(C=O)Cc1cnc(C)nc1N` (stereo not given) is 4; for `COCCOC=C1OC2=C(C(=O)N1c1ccccn1)N(C)S(=O)(=O)c1cc(Cl)sc12` it is 2.

On to `C=COC(=O)CCCCCCCCCCC`, for which the GHS category was found to be 5.

In the case of `CO[C@@H]1[C@@H](O[C@@H]2O[C@H](C)[C@@H](O[C@H]3C[C@@](C)(O)[C@@H](O)[C@H](C)O3)[C@H](N(C)C)[C@H]2O)[C@@H](CC=O)C[C@@H](C)[C@@H](O[C@@H]2CC[C@H](N(C)C)[C@@H](C)O2)C=CC=CC[C@@H](C)OC(=O)C[C@H]1OC(C)=O`, the GHS category turned out to be 5. The figure for `CCO[Si](CN(CC)CC)(OCC)OCC` is 5; for `CCCCc1oc2ccc([N+](=O)[O-])cc2c1C(=O)c1ccc(O)cc1` it is 5. The figure for `CCOC(=O)c1ccccc1OC(N)=O` is 5. The compound `CC(C)(C)c1ccc(C2=C3C(=O)NC(c4ccc(C(C)(C)C)cc4)=C3C(=O)N2)cc1` showed a GHS category of 5. The figure for `CCCCOC(=O)c1ccc(-n2nc(OCCN(CC)CC)c3ccccc32)cc1` is 4. The figure for `O=C(c1ccc(Cl)cc1)c1ccc2[nH]c(=O)oc2c1` is 5. As to `CC(C)CCCCCCCCCCOC(=O)CCCCC(=O)OCCCCCCCCCCC(C)C`, the GHS category is 5.

For the compound `C[C@@H]1CN(c2c(F)c(N)c3c(=O)c(C(=O)O)cn(C4CC4)c3c2F)C[C@H](C)N1` (racemic), the GHS category turned out to be 5. With `Cc1cc(C)c(C=O)c(C)c1` the figure was 5. Compound `CCCCC(CC)COC(=O)c1ccc(C(=O)OCC(CC)CCCC)c(C(=O)OCC(CC)CCCC)c1` (stereo not given) showed a GHS category of 5. In the case of `CCCc1c(Cc2ccc(-c3ccccc3C(N)=O)cc2)c(=O)nc2[nH]ncn12`, the GHS category was found to be 4. With `CC(C)=CCC/C(C)=C/COCC=O` the figure was 5; with `CC(C)(c1ccccc1)c1cc(-n2nc3ccccc3n2)c(O)c(C(C)(C)c2ccccc2)c1`, 5; with `Cc1ccc(N=Nc2c(O)c(C(=O)O)cc3ccccc23)c(S(=O)(=O)O)c1`, 5. In the case of `CCCCCCCCCCCC(=O)N(CCCC)CCCC`, the GHS category was 5. The figure for `CC1=C(C(=O)O)N2C(=O)[C@@H](NC(=O)[C@H](N)c3ccc(O)cc3)[C@H]2SC1` is 5. Consider `CCCCCNC(=O)c1cnc2cccc(C)n2c1=O`, for which the GHS category is 3. The figure for `CCOS(=O)(=O)c1cc(C(C)(C)C)cc2cc(C(C)(C)C)ccc12` is 5; for `O=C1C(O)N=C(c2ccccc2)c2cc(Cl)ccc2N1CC1CC1` (stereo not given) it is 5. The figure for `CC12CCC3c4ccc(OC(=O)c5ccccc5)cc4CCC3C1CCC2OC(=O)COC(=O)CCCc1ccc(N(CCCl)CCCl)cc1` (stereo not given) is 5; for `O=C1CN2CCOC2(c2ccccc2F)c2cc(Cl)ccc2N1CCO` (stereo not given) it is 5. As to `CCn1cc(C(=O)O)c(=O)c2cc(F)c(-n3cccc3)cc21`, the GHS category is 5. The figure for `Cc1[nH]n(-c2ccccc2)c(=O)c1N=Nc1ccc(-c2ccc(N=Nc3c(C)[nH]n(-c4ccccc4)c3=O)c(Cl)c2)cc1Cl` is 5; for `CCOC[C@H]1CO[C@@](Cn2cncn2)(c2cc3ccccc3o2)O1` it is 4. Compound `CCCCCCCCC(=O)NO` registered a GHS category of 5.

`O=C(O)CNC(c1ccccc1)c1ccccc1`: the GHS category is 4. The figure for `Oc1cc(Cl)cc(Br)c1` is 5; for `C=CC(=O)Oc1c(Br)cc(Cl)c2cccnc12` it is 5. Take `CCN1CCN(C(=O)N[C@@H](C(=O)N[C@@H]2C(=O)N3[C@@H]2SC(C)(C)[C@H]3C(=O)O)c2ccccc2)C(=O)C1=O`: the GHS category is listed as 5. With `O=C(O)CNC(=O)c1ccco1` the figure was 5; with `O=C1c2ccc(Br)cc2C(=O)C1(Br)c1ccc2ccccc2c1` (stereo not given), 5; with `CCCc1nc2ncnn2c(N(CC)CC)c1Cc1ccc(-c2ccccc2-c2nn[nH]n2)cc1`, 4.

As to `CC(C)c1cc(C(C)C)c(N=C=O)c(C(C)C)c1N=C=O`, the GHS category turned out to be 5.

In the case of `Cc1ncc(CSSCc2cnc(C)c(O)c2CN)c(CN)c1O`, the GHS category is recorded as 5.

In turn, `CC(C#N)c1cccc(C(=O)c2ccccc2)c1` (stereo not given) returned a GHS category of 4.

In turn, `CCCNC(=O)c1sc(-c2ccc(OC)cc2)nc1C` gave a GHS category of 5. The figure for `C=C(C)C(=O)OCCC(F)(F)C(F)(F)C(F)(F)C(F)(F)C(F)(F)C(F)(F)F` is 5; for `C=CC(C)(CCC=C(C)C)OC(=O)c1ccccc1` (stereo not given) it is 5; for `CCOC(=O)C(=O)Nc1cc(OC)nc(OC)n1` it is 4. The figure for `COc1cc(OC)c(NC(=O)c2cc3ccccc3cc2O)cc1Cl` is 5; for `C=CC1=C(C(=O)O)N2C(=O)[C@@H](NC(=O)/C(=N\O)c3csc(N)n3)[C@H]2SC1` it is 5. The compound `CNc1ccc(C(C)=O)cc1O` gave a GHS category of 5. With `CC[C@H](C)C(=O)O[C@H]1C[C@@H](C)C=C2C=C[C@H](C)[C@H](CC[C@@H]3C[C@@H](O)CC(=O)O3)[C@H]21` the figure was 5; with `N#Cc1ccc(NC(=O)Oc2ccccc2)cc1`, 5; with `CCCOc1nn(-c2cccc(C(F)(F)F)c2)c2ncccc12`, 4.

For the compound `O=C(Nc1ccc(NC(=O)c2cc3ccccc3c(N=Nc3cc(Cl)ccc3Cl)c2O)c(Cl)c1)c1cc2ccccc2c(N=Nc2cc(Cl)ccc2Cl)c1O`, the GHS category amounted to 5. With `CCCCCCCCCCCCOCCOCCOCCOCCOCCOCCOCCOCCOCCOCCOCCOCCOCCOCCOCCOCCOCCOCCOCCOCCOCCOCCOCCO` the figure was 5; with `C=C[Si](C)(C)O[Si](O[Si](C)(C)C=C)(O[Si](C)(C)C=C)O[Si](C)(C)C=C`, 5; with `CCN1C(=O)CCc2c(OCC(O)CN3CCC(Cc4ccccc4)CC3)cccc21` (stereo not given), 4. With `C=CCc1cc(C(C)(C)c2ccc(O)c(CC=C)c2)ccc1O` the figure was 5.

`CCCC(=O)c1ccc2c(c1)OC(C)(C)C(=O)N2` had a GHS category of 5.

As to `CC(=O)CC(=O)O[C@H]1C[C@@H](C)CC[C@@H]1C(C)C`, the GHS category is recorded as 5. With `Cc1cccc(N(C)C(=S)Oc2ccc3c(c2)C2CCC3C2)c1` (stereo not given) the figure was 4. With `N#CCN(CC#N)CCN(CC#N)CC#N` the figure was 5; with `CCCNC(=O)c1sc(-c2ccc(OC)c(OC)c2)nc1C`, 5. For the compound `Brc1c(Br)c(Br)c(OCCOc2c(Br)c(Br)c(Br)c(Br)c2Br)c(Br)c1Br`, the GHS category was 5.

`CCC(C)n1ncn(-c2ccc(N3CCN(c4ccc(OC[C@H]5CO[C@](Cn6cncn6)(c6ccc(Cl)cc6Cl)O5)cc4)CC3)cc2)c1=O` (stereo not given in full) came in with a GHS category of 4. The figure for `COc1ccc(C(=O)C2CC2)cc1` is 4.

For `Nc1ccc2oc(=O)[nH]c2c1`, the GHS category is 4. On to `CCC(=O)OC(C)(C)C1CC=C(C)CC1` (stereo not given), for which the GHS category is on record as 5. With `COc1ccccc1N1CCN(/C(N)=N/c2ccc(Cl)c(Cl)c2)CC1` the figure was 4; with `CCOC(=O)C(SP(=S)(OC)OC)C(SP(=S)(OC)OC)C(=O)OCC` (stereo not given), 4; with `CN1CC(c2ccn(-c3ccccc3)n2)CC2c3cccc4[nH]cc(c34)CC21` (stereo not given), 4. The figure for `CCCS(=O)(=O)Nc1ccc(F)c(C(=O)O)c1F` is 5.
